Data as given in PubChem BioAssay (NCI).
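Tested at 5 concentrations; 48 h exposure; 96-well plates; endpoints linearly interpolated, else capped at highest concentration. At the TGI there is no net growth.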

How the values were obtained:
Test in all cases: growth of human tumour cells (NCI), 48 h
[1] = system: BT-549 breast
[2] = system: MDA-MB-435
[3] = system: COLO 205 colon
[4] = system: CCRF-CEM leukemia
[5] = system: SNB-19 CNS
[6] = system: SK-MEL-5 melanoma
[7] = system: HT29 colon
[8] = system: SK-OV-3 ovarian
[9] = system: U251 CNS
[10] = system: NCI/ADR-RES ovarian
[11] = system: HCT-15 colon
[12] = system: MDA-MB-231 breast
[13] = system: MOLT-4 leukemia
[14] = system: PC-3 prostate
[15] = system: OVCAR-5 ovarian
[16] = system: TK-10 renal
[17] = system: OVCAR-4 ovarian
[18] = system: SF-268 CNS
[19] = system: SK-MEL-2 melanoma

Structure (SMILES) | TGI [1] [µM] | TGI [2] [µM] | TGI [3] [µM] | TGI [4] [µM] | TGI [5] [µM] | TGI [6] [µM] | TGI [7] [µM] | TGI [8] [µM] | TGI [9] [µM] | TGI [10] [µM] | TGI [11] [µM] | TGI [12] [µM] | TGI [13] [µM] | TGI [14] [µM] | TGI [15] [µM] | TGI [16] [µM] | TGI [17] [µM] | TGI [18] [µM] | TGI [19] [µM]
COC(=O)[C@H](Cc1c[nH]c2ccccc12)NC(=O)c1ccc(CNC(=O)/C(C)=C/c2ccccc2)cc1 | > 100 | > 100 | 50.5 | > 100 | > 100 | 33.2 | > 100 | > 100 | > 100 | > 100 | > 100 | 60.6 | > 100 | > 100 | > 100 | > 100 | > 100 | > 100 | 27.2
CCOC(=O)C1(C/C=C/CBr)CCc2ccccc2C1=O (stereo unspecified) | 44 | 31 | 42.6 | > 100 | 30.8 | 25.2 | 52.3 | 33.1 | 31.2 | 63.5 | 47.5 | 56 | > 100 | 43 | 70.2 | 35.2 | 29.7 | 46 | 37.7
CC1=NC(=Cc2cc(Br)cc(Br)c2)C(=O)N1n1c(-c2ccccc2)nc2ccccc2c1=O | > 100 | > 100 | > 100 | > 100 | > 100 | > 100 | > 100 | > 100 | > 100 | > 100 | > 100 | > 100 | > 100 | > 100 | > 100 | > 100 | > 100 | > 100 | > 100
CC(=O)Oc1ccc2c(c1)c1c(=O)oc(C)nc1n2Cc1ccccc1 | > 66.3 | 99.4 | > 100 | > 100 | > 100 | > 100 | > 100 | 98.6 | > 100 | > 100 | > 100 | > 100 | > 100 | > 100 | > 100 | > 91.2 | > 100 | > 100 | > 71.6
Cc1nn(C(=O)c2ccc(Cl)cc2)c2c1C(/C=C/c1ccccc1)SC(N)=N2 (stereo unspecified) | > 10 | > 10 | > 10 | > 10 | > 10 | > 10 | > 10 | > 10 | > 10 | > 10 | > 10 | > 10 | > 10 | > 10 | > 10 | > 10 | > 10 | > 10 | > 10
O=C1C=CC(=O)c2c1ccc1c3ccccc3n(-c3cccc([N+](=O)[O-])c3)c21 | 3.31 | 4.37 | 3.21 | 0.82 | > 10 | > 10 | > 10 | > 10 | > 10 | > 10 | 7.09 | 5.81 | 1.07 | > 10 | > 10 | 4.47 | > 5.95 | > 10 | > 10
COc1ccc2c(c1)nc1n2C(c2c(Cl)cccc2Cl)SC1 (stereo unspecified) | > 100 | > 23.6 | > 100 | > 100 | > 92.7 | > 100 | 85.9 | > 100 | > 65.5 | > 52.5 | > 100 | > 100 | > 100 | > 82.3 | > 100 | > 100 | > 100 | > 100 | > 74
O=C(/C=C/c1ccc(OCc2cccc(Cl)c2)cc1)NO | 80.7 | 53.3 | 32 | 26.6 | 60.7 | 45.7 | 28.2 | 49.3 | 47.9 | 23.3 | 20.8 | 44.1 | 18 | 47.4 | 71.5 | 67.1 | 38 | > 100 | 53.7
CC(=O)O[C@H]1CCC2[C@@H]3CCC4Nc5oncc5C[C@]4(C)C3CC[C@@]21C (stereo partly specified) | > 10 | > 10 | > 10 | > 10 | > 10 | > 10 | > 10 | > 10 | > 10 | > 10 | > 10 | > 10 | > 10 | > 10 | > 10 | > 10 | > 10 | > 10 | > 10
O=C(CCc1cc(O)ccc1O)OCCc1ccccc1 | 26.6 | 24.5 | 22.6 | 1.94 | > 100 | > 55.6 | > 100 | > 100 | 29.1 | > 100 | 27.2 | 42.7 | > 21 | 18.5 | > 52.1 | 27.8 | 32.5 | > 50.5 | > 100
COc1cc(N(CCC#N)CCC#N)ccc1/C(N=Nc1ccccc1C)=N\NC(=O)c1ccc(C)cc1 | > 100 | > 100 | > 100 | 40.3 | > 100 | > 100 | > 100 | > 100 | > 100 | > 100 | > 100 | > 100 | > 100 | > 100 | > 100 | > 100 | > 100 | > 100 | > 100
CC1(C)CC(=O)C(C=NC(=O)c2ccncc2)=C(O)C1 | > 100 | > 100 | > 100 | > 100 | > 100 | > 100 | > 100 | > 100 | > 100 | > 100 | > 100 | > 100 | > 100 | > 100 | > 100 | > 100 | > 100 | > 100 | > 100
O=C(NCCCl)N(O)C(=O)Nc1ccccc1 | > 100 | > 100 | > 100 | > 100 | > 100 | > 100 | > 100 | > 100 | > 100 | > 100 | > 100 | > 100 | > 100 | > 100 | > 100 | > 100 | > 100 | > 100 | > 100
O=C(Oc1cccnc1)c1cc2cc(CCl)ccc2oc1=O | 53.7 | 73 | 69.5 | > 100 | > 100 | > 100 | 39.9 | > 100 | 57.2 | 76.6 | 58.5 | 43.2 | 61.4 | 32.9 | 64.6 | 50.8 | 60.3 | 45.3 | 54
CCOC(=O)CO/N=C1/C(c2c(O)[nH]c3ccccc23)=Nc2ccccc21 | > 100 | > 100 | > 100 | > 100 | 89.4 | > 100 | > 100 | 49.2 | 66.1 | > 100 | > 100 | 43.3 | 78.5 | > 100 | > 100 | > 100 | 16.5 | > 100 | > 100
Cc1c(O)c(OC2OC(CO)C(O)C(O)C2O)cc2c1CC[C@@H]1C2(C)C(=O)C[C@]2(C)[C@@H]([C@@](C)(O)C(=O)CCC(C)(C)O)[C@H](O)C[C@@]12C (stereo partly specified) | > 100 | > 100 | > 100 | > 100 | > 100 | > 100 | > 100 | > 100 | > 100 | > 100 | > 100 | > 100 | > 100 | > 100 | > 100 | > 100 | > 100 | > 100 | > 100
CCOC(=O)c1nc2ccc(C(F)(F)F)cc2[nH]c1=O | > 100 | > 100 | > 100 | > 100 | > 100 | > 100 | > 100 | > 100 | > 100 | > 100 | > 100 | > 100 | > 100 | > 100 | > 100 | > 100 | > 100 | > 100 | > 100
Cc1ccc(-c2n[nH]c(=O)n2/N=C\c2ccc([N+](=O)[O-])cc2)cc1 | > 100 | > 94.2 | > 100 | > 100 | > 100 | > 100 | > 100 | > 100 | > 100 | > 100 | > 100 | > 75.9 | > 100 | > 100 | > 100 | > 100 | > 100 | > 100 | > 100
CCN1CCC(O)(/C=C/c2ccc(C)cc2)C(C(=O)/C=C/c2ccc(C)cc2)C1 (stereo unspecified) | 13.7 | 8.75 | 4.45 | 5.62 | 23.5 | 9.85 | 6.89 | 29.1 | 9.24 | 8.03 | 16.2 | 5.48 | 4.59 | 18.1 | 23.2 | 14.4 | 23 | 24.6 | 15.9
CN(C)CC1CCC/C(=C\c2ccc(Cl)cc2)C1=O (stereo unspecified) | 3.45 | 9.22 | 4.82 | 3.39 | 26.5 | 12.3 | > 32.7 | 23.2 | 9.08 | 18.9 | 4.86 | 9.21 | > 21.7 | 8 | 35.6 | 10 | 8.94 | 8.33 | 2.05
S=C1SSC2N=CC=CC12 (stereo unspecified) | > 100 | 31.8 | > 100 | 71.1 | > 100 | > 100 | > 100 | > 100 | > 100 | > 100 | > 100 | > 100 | > 100 | > 100 | > 100 | > 100 | 34.2 | > 100 | > 100
CN1CCc2c(sc3ncn(C)c(=N)c23)C1 | > 100 | > 100 | > 100 | > 100 | > 100 | > 100 | > 100 | > 100 | > 100 | > 100 | > 100 | > 100 | > 100 | > 100 | > 100 | > 100 | > 100 | > 100 | > 100
CC1CC[C@@]2(OC1)OC1C[C@H]3[C@@H]4CC[C@H]5CC(OC6OC(CO)C(O)C(OC7OC(CO)C(OC8OC(CO)C(O)C(OC9OC(CO)C(O)C(O)C9O)C8OC8OC(CO)C(O)C(O)C8O)C(O)C7O)C6O)[C@H](O)CC5(C)[C@H]4CCC3(C)C1[C@@H]2C (stereo partly specified) | 10.5 | 14.6 | 6.04 | 10.2 | 9.47 | 13.6 | 11.1 | 14.1 | 9.43 | 12.5 | 19.3 | 5.87 | 16.4 | 6.66 | 12.9 | 11.8 | 9.55 | 11.3 | 9.78
CN1C(=O)c2ccccc2OC12C=Cc1ccc(O)cc1O2 (stereo unspecified) | 85.5 | 85.3 | 65.1 | 72.8 | > 100 | 37.6 | 57.2 | 53.5 | > 100 | 40.4 | > 100 | 82.1 | 58.7 | 59.2 | > 100 | > 100 | 96.9 | > 100 | 56.1
